Source: patent US12233060B2, “Inhibitors of Ataxia-Telangiectasia Mutated and Rad3-related protein kinase (ATR) for use in methods of treating cancer” (THE INSTITUTE OF CANCER RESEARCH: ROYAL CANCER HOSPITAL, priority 2016, dated 2025)

Test system: HCT116 ARID1A+/+ and ARID1A−/− cells
Assay: Apoptosis assay (caspase-3/7 activity)
Type: cell-based, human
Conditions: 24 hours exposure; p<0.05 Student's t-test
Experimental: FIG. 3. In vivo ARID1A/ATR synthetic lethality. A. Schematic of VX-970 therapy experiment in mice bearing established HCT116 ARID1A^+/+ and ARID1A^−/− xenografts. Cells were inoculated subcutaneously into nude mice and tumors allowed to establish for 10 days. Mice were then randomized to treatment regimens of either VX-970 (60 mg/kg, 4× weekly by oral gavage) or vehicle. Mice were then treated for a subsequent 40 days. Tumor volume was monitored twice weekly. B. Relative tumor volume plot from (A) showing efficacy of VX-970 and selectivity for ARID1A^−/− xenografts* p=0.024, ANOVA. C. Schematic of tumor incidence experiment in mice with non-established HCT116 ARID1A^+/+ and ARID1A^−/− xenografts. […] Tumor volume was monitored twice weekly and overall tumour incidence was assessed 40 days later. […] PARP-1, cleaved PARP-1 (85 kDa fragment) and tubulin were detected by western blot. […] Caspase3/7 activity was assessed using Caspase-Glo and total cellular viability was estimated using CellTitre-Glo. Luminescence ratios for Caspase-Glo (i.e. apoptotic cells) and CellTitre-Glo (ie viable cells) was determined for each dose and normalized to DMSO treated samples. *Student's t-test, p<0.05. […]
FIG. 5. […] The percentage of cells in G2/M was measured by FACS following PI staining. […] A minimum of 50 anaphases were scored in 3 biological replicate experiments. *p=0.023, Student's t-test. […]

## CNCc1ccc(-c2cc(-c3nc(-c4ccc(S(=O)(=O)C(C)C)cc4)cnc3N)on2)cc1 [VX-970, 5-[4-(Isopropylsulfonyl)phenyl]-3-(3-{4-[(methylamino)methyl]phenyl}-1,2-oxazol-5-yl)-2-pyrazinamine]
  caspase-3/7 activation, ARID1A−/− vs ARID1A+/+: higher caspase-3/7 activation
